# According to patent US20100105864A1, “PROPHYLACTIC OR THERAPEUTIC AGENT FOR DIARRHEA” (priority 2007, published 2010):
# Biological target: T1, human calcium receptor (Homo sapiens, UniProt P41180)
# T1 construct: expressed in transfected cells; host or cells: Xenopus laevis oocytes injected with cRNA
# T1 sequence (P41180 20-1078): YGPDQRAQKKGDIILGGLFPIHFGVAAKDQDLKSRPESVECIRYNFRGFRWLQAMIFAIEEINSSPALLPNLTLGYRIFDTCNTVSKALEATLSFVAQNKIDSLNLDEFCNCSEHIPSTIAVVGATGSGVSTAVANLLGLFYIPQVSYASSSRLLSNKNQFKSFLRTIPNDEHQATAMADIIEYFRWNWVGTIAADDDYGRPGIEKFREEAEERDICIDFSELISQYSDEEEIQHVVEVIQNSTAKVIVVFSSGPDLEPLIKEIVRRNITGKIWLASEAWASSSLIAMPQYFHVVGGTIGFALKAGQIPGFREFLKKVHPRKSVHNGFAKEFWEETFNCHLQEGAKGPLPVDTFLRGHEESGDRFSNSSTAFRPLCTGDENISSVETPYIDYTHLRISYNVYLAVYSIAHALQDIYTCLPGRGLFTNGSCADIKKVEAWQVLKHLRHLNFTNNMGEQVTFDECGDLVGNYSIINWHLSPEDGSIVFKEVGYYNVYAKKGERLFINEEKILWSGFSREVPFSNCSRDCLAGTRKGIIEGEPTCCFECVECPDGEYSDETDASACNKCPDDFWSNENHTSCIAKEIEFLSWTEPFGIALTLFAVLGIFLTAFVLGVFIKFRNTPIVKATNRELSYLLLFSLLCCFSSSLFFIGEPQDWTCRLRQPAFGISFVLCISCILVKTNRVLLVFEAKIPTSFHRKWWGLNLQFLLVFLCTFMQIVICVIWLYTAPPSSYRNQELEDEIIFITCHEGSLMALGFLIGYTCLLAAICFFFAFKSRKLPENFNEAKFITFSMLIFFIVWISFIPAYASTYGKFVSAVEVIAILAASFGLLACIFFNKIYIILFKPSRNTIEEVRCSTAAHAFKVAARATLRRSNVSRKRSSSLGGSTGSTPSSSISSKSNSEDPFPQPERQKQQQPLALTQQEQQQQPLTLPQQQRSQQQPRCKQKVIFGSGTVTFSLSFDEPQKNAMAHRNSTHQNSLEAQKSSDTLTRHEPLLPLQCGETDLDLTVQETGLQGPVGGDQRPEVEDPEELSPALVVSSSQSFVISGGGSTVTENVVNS
# Assay: Ca ion concentration-dependent Cl ionic current measurement in Xenopus laevis oocytes expressing the calcium receptor
# Type: cell-based
# Conditions: peptide added at 50 μM
# Method: For evaluation of the calcium receptor-activating action, a Ca ion concentration-dependent Cl ionic current measuring method using a Xenopus laevis oocyte expression system was used. If each activator is added to Xenopus laevis oocytes expressing the calcium receptor, intracellular Ca ions increase. Then, the Ca ion concentration-dependent Cl channel opens, and the intracellular current value changes as an ionic current. By measuring the change in the intracellular current value, whether the calcium receptor-activating action is present or not can be determined.
# Specifically, the abdomen of Xenopus laevis was opened, and an egg batch was taken out and then treated with a 1% collagenase solution at 20° C. for 2 hours to obtain individual oocytes. Into the oocytes, 50 nl of 1 μg/μl receptor cRNA or 50 nl of sterilized water per oocyte were injected by using a micro glass capillary, and the oocytes were cultured at 18° C. for 2 to 3 days. For the culture, a solution obtained by adding 2 mM pyruvic acid, 10 U/ml penicillin, and 10 μg/ml streptomycin to the solution in Example 2 was used. After the culture, a test solution was added to the oocytes injected with cRNA or sterilized water. Electrophysiological measurement was performed by using an amplifier Geneclamp 500 (manufactured by Axon) and recording software AxoScope 9.0 (manufactured by Axon). The oocytes were membrane potential-clamped at −70 mV by the double electrode potential clamp method, and the intracellular current was measured via the Ca ion concentration-dependent Cl ion channel. The maximum value of the intracellular current was defined as the response current value. […]
# The calcium receptor-activating action of L-amino acids was evaluated by using the method described in Example 13. That is, oocytes injected with cRNA of the calcium receptor or sterilized water were prepared, and membrane potential-clamped at −70 mV by the double electrode potential clamp method. To the potential-clamped oocytes, alanine (10 mM), arginine (10 mM), asparagine (10 mM), aspartic acid (10 mM), cysteine (10 mM), glutamine (10 mM), glutamic acid (10 mM), glycine (10 mM), histidine (10 mM), isoleucine (10 mM), leucine (10 mM), lysine (10 mM), methionine (10 mM), phenylalanine (10 mM), proline (10 mM), serine (10 mM), threonine (10 mM), tryptophan (10 mM), tyrosine (10 mM), valine (10 mM), ornithine (10 mM), taurine (10 mM), or hydroxyproline (10 mM) was added, and Ca ion concentration-dependent Cl response current was measured. […] As for the above-described amino acids, the activating action is reported in Proc. Natl. Acad. Sci. USA, Apr. 25, 2000, 97(9): 4814-9.
# The calcium receptor-activating action of D-cysteine was evaluated by using the method described in Example 13. That is, oocytes injected with cRNA of the calcium receptor or sterilized water were prepared, and membrane potential-clamped at −70 mV by the double electrode potential clamp method. To the potential-clamped oocytes, D-cysteine (10 mM), L-cysteine (10 mM), D-tryptophan (10 mM), or L-tryptophan (10 mM) was added, and Ca ion concentration-dependent Cl response current was measured.
# The calcium receptor-activating action of a peptide was evaluated by using the method described in Example 13. That is, oocytes injected with cRNA of the calcium receptor or sterilized water were prepared, and membrane potential-clamped at −70 mV by the double electrode potential clamp method.
compound,measurement,value
N[C@@H](CCC(=O)N[C@@H](CS)C(=O)NCC(=O)O)C(=O)O [γ-Glu-Cys-Gly],calcium receptor-activating action (Ca ion concentration-dependent Cl response current),definite calcium receptor-activating action
